Reference: patent publication US20260263449A1, “METHODS AND COMPOSITIONS FOR TREATING COCAINE ADDICTION” (The Jackson Laboratory, priority 2023, published 2026)
Entries after “also recorded” stand apart in the source; their conditions may differ. Where two headings read alike, the source gives them in different places.

Key:
guinea pigs = details: cited from earlier work
C57BL/6NJ mice [1] = test: hypothermia bioassay for blood-brain barrier penetration in mice
Procedure: (§1) In some embodiments, the hypothermia bioassay described herein is used to determine whether a drug passes the BBB.
(§2) Thus, if mice developed hypothermia following administration of a drug, the drug was determined to cross the blood-brain barrier. […] Both drugs were formulated using 5% Kolliphor® HS-15 and 5% NMP in saline as a vehicle, as using dimethyl sulfoxide (DMSO), a standard solvent, caused hypothermia by itself.
(§3) The temperature of mice was then monitored for 120 minutes following injection.

5-HT2B receptor = 5-HT2B receptor (Homo sapiens, UniProt P41595); details: cited from earlier work
Sequence of 5-HT2B receptor (P41595 whole entry): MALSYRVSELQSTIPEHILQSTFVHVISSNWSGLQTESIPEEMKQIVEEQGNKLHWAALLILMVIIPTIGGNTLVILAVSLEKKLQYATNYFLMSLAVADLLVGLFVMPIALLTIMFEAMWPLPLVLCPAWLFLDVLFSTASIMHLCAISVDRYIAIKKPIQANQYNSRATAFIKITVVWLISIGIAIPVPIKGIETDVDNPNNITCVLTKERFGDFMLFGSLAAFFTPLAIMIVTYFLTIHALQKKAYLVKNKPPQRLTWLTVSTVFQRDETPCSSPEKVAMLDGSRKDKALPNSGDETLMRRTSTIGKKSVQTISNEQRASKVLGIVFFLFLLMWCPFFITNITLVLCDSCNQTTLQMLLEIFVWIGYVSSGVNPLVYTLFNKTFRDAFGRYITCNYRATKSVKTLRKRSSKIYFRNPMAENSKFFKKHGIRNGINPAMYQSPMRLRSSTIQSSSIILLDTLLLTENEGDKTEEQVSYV

5-HT2A receptor = 5-HT2A receptor (Homo sapiens, UniProt P28223); details: cited from earlier work
Sequence of 5-HT2A receptor (P28223 whole entry): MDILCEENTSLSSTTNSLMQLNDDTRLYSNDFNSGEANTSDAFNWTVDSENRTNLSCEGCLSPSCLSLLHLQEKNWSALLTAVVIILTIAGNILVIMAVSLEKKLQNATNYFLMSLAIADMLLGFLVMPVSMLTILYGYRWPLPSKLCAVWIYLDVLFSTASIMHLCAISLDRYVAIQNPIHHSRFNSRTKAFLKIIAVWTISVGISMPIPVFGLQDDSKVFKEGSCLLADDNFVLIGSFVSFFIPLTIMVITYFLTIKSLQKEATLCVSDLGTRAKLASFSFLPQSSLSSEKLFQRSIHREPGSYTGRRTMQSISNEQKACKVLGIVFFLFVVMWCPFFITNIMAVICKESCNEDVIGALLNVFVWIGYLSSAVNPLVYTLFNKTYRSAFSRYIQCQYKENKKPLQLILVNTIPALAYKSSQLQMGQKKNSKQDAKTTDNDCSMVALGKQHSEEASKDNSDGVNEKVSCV

5-HT6 receptor = 5-HT6 receptor (Homo sapiens, UniProt P50406); details: cited from earlier work
Sequence of 5-HT6 receptor (P50406 whole entry): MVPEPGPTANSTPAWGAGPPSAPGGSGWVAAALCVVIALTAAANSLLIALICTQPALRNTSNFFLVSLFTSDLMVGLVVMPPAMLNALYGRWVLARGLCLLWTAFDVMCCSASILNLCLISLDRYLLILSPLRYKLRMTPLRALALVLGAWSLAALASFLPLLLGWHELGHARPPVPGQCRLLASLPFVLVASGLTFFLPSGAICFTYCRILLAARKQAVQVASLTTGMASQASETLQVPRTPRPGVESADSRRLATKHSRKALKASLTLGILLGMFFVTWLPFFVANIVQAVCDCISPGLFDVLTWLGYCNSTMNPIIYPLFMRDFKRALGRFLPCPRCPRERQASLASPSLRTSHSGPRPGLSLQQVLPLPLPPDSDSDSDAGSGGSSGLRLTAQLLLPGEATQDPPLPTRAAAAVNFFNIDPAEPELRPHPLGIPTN

5-HT1B receptor = 5-HT1B receptor (Homo sapiens, UniProt P28222); details: cited from earlier work
Sequence of 5-HT1B receptor (P28222 whole entry): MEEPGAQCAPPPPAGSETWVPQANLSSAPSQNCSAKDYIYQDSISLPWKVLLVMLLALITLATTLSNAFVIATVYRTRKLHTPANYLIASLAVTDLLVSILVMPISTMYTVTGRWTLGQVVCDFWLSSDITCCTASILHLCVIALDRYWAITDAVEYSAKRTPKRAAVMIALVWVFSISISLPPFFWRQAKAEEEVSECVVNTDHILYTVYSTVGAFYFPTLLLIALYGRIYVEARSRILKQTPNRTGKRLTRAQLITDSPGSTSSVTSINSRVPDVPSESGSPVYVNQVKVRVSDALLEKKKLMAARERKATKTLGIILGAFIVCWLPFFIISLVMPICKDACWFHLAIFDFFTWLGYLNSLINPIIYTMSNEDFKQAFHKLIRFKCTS

5-HT1A receptor = biological target: T1, 5-HT1A receptor (Homo sapiens, UniProt P08908); details: cited from earlier work
T1 sequence (P08908 1-422): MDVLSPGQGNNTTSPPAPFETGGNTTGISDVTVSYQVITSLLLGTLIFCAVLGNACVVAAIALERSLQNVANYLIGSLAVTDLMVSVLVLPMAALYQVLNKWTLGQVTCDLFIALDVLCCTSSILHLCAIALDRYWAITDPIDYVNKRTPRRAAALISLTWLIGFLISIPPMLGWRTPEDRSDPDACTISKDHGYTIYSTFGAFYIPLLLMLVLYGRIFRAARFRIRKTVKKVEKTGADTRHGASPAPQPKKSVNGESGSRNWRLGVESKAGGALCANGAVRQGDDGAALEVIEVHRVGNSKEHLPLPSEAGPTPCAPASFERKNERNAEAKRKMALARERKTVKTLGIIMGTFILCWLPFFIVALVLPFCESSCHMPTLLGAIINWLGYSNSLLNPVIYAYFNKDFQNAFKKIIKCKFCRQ

5-HT1E receptor = 5-HT1E receptor (Homo sapiens, UniProt P28566); details: cited from earlier work
Sequence of 5-HT1E receptor (P28566 whole entry): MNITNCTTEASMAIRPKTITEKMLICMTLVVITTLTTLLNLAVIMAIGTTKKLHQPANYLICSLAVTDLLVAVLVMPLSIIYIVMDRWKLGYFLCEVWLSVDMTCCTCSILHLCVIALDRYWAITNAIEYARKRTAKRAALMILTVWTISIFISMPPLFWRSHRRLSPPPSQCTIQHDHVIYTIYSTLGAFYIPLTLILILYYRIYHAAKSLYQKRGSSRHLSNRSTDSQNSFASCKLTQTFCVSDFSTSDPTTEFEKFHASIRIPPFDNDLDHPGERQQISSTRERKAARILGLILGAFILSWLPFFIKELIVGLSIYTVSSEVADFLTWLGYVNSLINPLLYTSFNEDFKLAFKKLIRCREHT

5-HT2C receptor = biological target: T2, 5-HT2C receptor (Homo sapiens, UniProt P28335); details: cited from earlier work
T2 sequence (P28335 33-458): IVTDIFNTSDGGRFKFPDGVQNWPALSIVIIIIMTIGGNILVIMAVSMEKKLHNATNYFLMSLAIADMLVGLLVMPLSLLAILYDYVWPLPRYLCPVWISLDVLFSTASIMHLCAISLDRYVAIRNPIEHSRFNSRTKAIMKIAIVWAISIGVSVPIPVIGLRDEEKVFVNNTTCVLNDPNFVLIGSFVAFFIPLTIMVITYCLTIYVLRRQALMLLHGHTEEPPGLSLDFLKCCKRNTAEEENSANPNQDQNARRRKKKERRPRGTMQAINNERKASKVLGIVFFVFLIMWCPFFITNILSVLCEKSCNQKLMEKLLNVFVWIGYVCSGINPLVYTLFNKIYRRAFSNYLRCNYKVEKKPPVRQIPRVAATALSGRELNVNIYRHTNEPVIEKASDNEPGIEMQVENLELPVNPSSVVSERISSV

mice addicted to cocaine = test: cocaine intravenous self-administration (IVSA) in cocaine-addicted mice; type: in vivo
Procedure: The efficacy of PNU-109291 treatment in mice addicted to cocaine was tested. Mice first acquired cocaine IVSA at 0.75 mg/kg cocaine per dose at a fixed-ratio-1 reinforcement schedule, then a fixed-ratio-5 schedule until they stabilized their drug-taking behavior. The animals were then injected with descending doses of PNU-109291 prior to IVSA sessions. Doses of PNU-109291 were separated by vehicle injection, and vehicle-first versus agonist-first order was randomized and counterbalanced.

5-HT7 receptor = 5-HT7 receptor (Homo sapiens, UniProt P34969); details: cited from earlier work
Sequence of 5-HT7 receptor (P34969 whole entry): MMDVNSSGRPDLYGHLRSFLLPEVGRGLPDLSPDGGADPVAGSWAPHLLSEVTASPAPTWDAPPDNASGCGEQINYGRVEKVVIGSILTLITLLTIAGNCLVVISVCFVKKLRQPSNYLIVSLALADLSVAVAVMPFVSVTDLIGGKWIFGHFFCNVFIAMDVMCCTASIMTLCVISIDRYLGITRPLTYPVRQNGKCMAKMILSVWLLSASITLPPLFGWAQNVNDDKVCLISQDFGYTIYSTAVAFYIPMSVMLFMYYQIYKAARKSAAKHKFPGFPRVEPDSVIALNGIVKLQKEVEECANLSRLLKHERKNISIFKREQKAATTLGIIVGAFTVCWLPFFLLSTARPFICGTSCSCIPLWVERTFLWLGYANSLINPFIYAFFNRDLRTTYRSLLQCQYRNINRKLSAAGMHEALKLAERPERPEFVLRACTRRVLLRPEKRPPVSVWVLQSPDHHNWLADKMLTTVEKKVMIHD

C57BL/6NJ mice [2] = details: mouse, in vivo, iv, 10 mg/kg
Procedure: as §1, §2, §3

**Q.** With `COc1ccc(CNC(=O)/C=C/c2ccc3[nH]cc(CCN(C)C)c3c2)cc1` [GR46611] as the compound, how does the central hypothermia (guinea pigs; injected directly into the lateral ventricles of guinea pigs) read?
**A.** caused central hypothermia

**Q.** Which results are given for `CNC(=O)c1ccc2c(c1)CCO[C@H]2CCN1CCN(c2ccc(OC)cc2)CC1` [PNU-109291, (S)-3,4-Dihydro-1-[2-[4-(4-methoxyphenyl)-1-piperazinyl]ethyl]-N-methyl-1H-2-benzopyran-6-carboxamide]?
**A.** central hypothermia (C57BL/6NJ mice [1]; intravenous administration in mice, dose not given): caused central hypothermia at levels comparable to a known BBB-permeable drug; central hypothermia (internal temperature) (C57BL/6NJ mice [1]; intravenous injection, 10 mg/kg, temperature monitored for 120 minutes, vehicle 5% Kolliphor HS-15 and 5% NMP in saline): induced central hypothermia; blood-brain barrier penetration, inferred from hypothermia (C57BL/6NJ mice [1]; intravenous, 10 mg/kg, mice): can bypass the blood-brain barrier; also recorded: penetrates the blood-brain barrier; activity at 5-HT2B receptor (5-HT2B receptor): no activity; selectivity for 5-HTR1D over 5-HT2A receptor (5-HT2A receptor): > 600 -fold; activity at 5-HT6 receptor (5-HT6 receptor): no activity; activity at 5-HT1B receptor (5-HT1B receptor): no activity; selectivity for 5-HTR1D over 5-HT1A receptor (5-HT1A receptor): > 600 -fold; activity at 5-HT1E receptor (5-HT1E receptor): no activity; activity at 5-HT2C receptor (5-HT2C receptor): no activity; volitional cocaine-taking (total infusions of cocaine self-administered) (mice addicted to cocaine; intravenous pre-treatment, 10 mg/kg body weight, before IVSA session): significant dose effect; also recorded: reduced volitional cocaine-taking behavior; inactive lever presses (mice addicted to cocaine; intravenous pre-treatment, range of doses): no differences in inactive lever presses; also recorded: no effect; cocaine self-administration, dose dependence (mice addicted to cocaine; range of doses, cocaine-addicted mice): dose-dependent decrease in cocaine self-administration; activity at 5-HT7 receptor (5-HT7 receptor): no activity

**Q.** With `CNS(=O)(=O)Cc1ccc2[nH]cc(CCN(C)C)c2c1` [sumatriptan] as the compound, how does the central hypothermia (guinea pigs; injected subcutaneously, guinea pigs) read?
**A.** does not

**Q.** With `CN(C)CCc1c[nH]c2ccc(C[C@H]3COC(=O)N3)cc12` [zolmitriptan] as the compound, how does the “blood-brain barrier penetration, inferred from hypothermia” value (C57BL/6NJ mice [2]) read?
**A.** can bypass the blood-brain barrier
